Test results published in article PMC11462347 (Heliyon, 2024).

Columns and labels:
tyrosinase [1] = molecular target: T1, tyrosinase (Agaricus bisporus, UniProt C7FF04); assay: Kinetic assay for inhibition action; format: biochemical; conditions: for Inhibition type: Lineweaver-Burk plot
Target sequence in this assay (C7FF04 1-392): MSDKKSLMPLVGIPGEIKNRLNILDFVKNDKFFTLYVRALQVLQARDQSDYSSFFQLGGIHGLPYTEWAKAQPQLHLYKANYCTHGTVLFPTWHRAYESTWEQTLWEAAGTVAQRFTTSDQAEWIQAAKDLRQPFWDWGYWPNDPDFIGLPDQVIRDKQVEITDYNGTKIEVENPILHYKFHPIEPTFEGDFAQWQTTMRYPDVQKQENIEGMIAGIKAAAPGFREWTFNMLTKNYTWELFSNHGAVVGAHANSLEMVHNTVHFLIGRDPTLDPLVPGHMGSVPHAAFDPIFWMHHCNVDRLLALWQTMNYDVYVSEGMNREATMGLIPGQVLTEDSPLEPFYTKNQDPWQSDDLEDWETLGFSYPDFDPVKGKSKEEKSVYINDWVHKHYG

tyrosinase [2] = molecular target: T1, tyrosinase; assay: Fluorescence quenching of tyrosinase; format: binding; conditions: for Kd: Ka; for quenching mechanism: Ksv decreasing with temperature; for ΔH / ΔS: van't Hoff equation, 298-310 K
Target sequence in this assay (C7FF04 1-392 limits assumed): as the sequence (C7FF04 1-392) above

tyrosinase [3] = molecular target: T1, tyrosinase; assay: biochemical
Target sequence in this assay (C7FF04 1-392): as above

| Structure (SMILES) | Inhibition type (tyrosinase [1]) | numbers of binding sites (n) (tyrosinase [2]) | Kq (tyrosinase [2]; 298 K) | Kq (tyrosinase [2]; 304 K) | Kq (tyrosinase [2]; 310 K) | Kd (tyrosinase [2]; T 298 K) [µM] | Kd (tyrosinase [2]; T 304 K) [µM] | Kd (tyrosinase [2]; T 310 K) [µM] | quenching mechanism (tyrosinase [2]) | KSV (tyrosinase [2]; T 298 K) | n (number of binding sites) (tyrosinase [2]; T 298 K) | ΔG (tyrosinase [2]; T 298 K) [kcal/mol] | KSV (tyrosinase [2]; T 304 K) | n (number of binding sites) (tyrosinase [2]; T 304 K) | ΔG (tyrosinase [2]; T 304 K) [kcal/mol] | KSV (tyrosinase [2]; T 310 K) | n (number of binding sites) (tyrosinase [2]; T 310 K) | ΔG (tyrosinase [2]; T 310 K) [kcal/mol] | ΔH (tyrosinase [2]) [kcal/mol] | ΔS (tyrosinase [2]) [J mol^−1k^−1] | further results |
| --- | --- | --- | --- | --- | --- | --- | --- | --- | --- | --- | --- | --- | --- | --- | --- | --- | --- | --- | --- | --- | --- |
| O=c1c(O)c(-c2ccc(O)cc2)oc2cc(O)cc(O)c12 [Kaempferol] | Competitive | ~1 | 1.03 × 10^12 L mol^−1 S^−1 | 0.83 × 10^12 L mol^−1 S^−1 | 0.73 × 10^12 L mol^−1 S^−1 | 47.6 | 16.9 | 12.3 | static | 1.03 ± 0.04 10^4L·mol^−1 | 1.08 | -0.717 ± 0.014 | 0.83 ± 0.1 10^4L·mol^−1 | 1.22 | -0.782 ± 0.0072 | 0.73 ± 0.02 10^4L·mol^−1 | 1.27 | -0.846 ± 0.012 | 2.49 ± 0.263 | 45.03 ± 7.1 | IC50 (tyrosinase [3]): 82.1 ± 13.7 µM |
| COc1cc(-c2oc3cc(O)cc(O)c3c(=O)c2O)ccc1O [Isorhamnetin] | Mixed | ~1 | 0.73 × 10^12 L mol^−1 S^−1 | 0.65 × 10^12 L mol^−1 S^−1 | 0.51 × 10^12 L mol^−1 S^−1 | 5.46 | 5.18 | 9.8 | static | 0.73 ± 0.01 10^4L·mol^−1 | 1.10 | -0.707 ± 0.0024 | 0.65 ± 0.02 10^4L·mol^−1 | 1.12 | -0.7 ± 0.0024 | 0.51 ± 0.01 10^4L·mol^−1 | 1.08 | -0.693 ± 0.0048 | -1.07 ± 0.502 | −5.10 ± 1.19 | Inhibition type (tyrosinase [1]; listed as isorhamnetin): mixed inhibition; Kis (tyrosinase [1]; binding to enzyme-substrate complex): 0.924 ± 0.02 mg/mL; IC50 (tyrosinase [3]): 96.4 ± 9.9 µM |
| O=c1c(O)c(-c2ccc(O)c(O)c2)oc2cc(O)cc(O)c12 [Quercetin] | Competitive | ~2 | 1.44 × 10^12 L mol^−1 S^−1 | 1.17 × 10^12 L mol^−1 S^−1 | 1.13 × 10^12 L mol^−1 S^−1 |  |  |  | static | 1.44 ± 0.21 10^4L·mol^−1 | 1.44 | -0.923 ± 0.012 | 1.17 ± 0.11 10^4L·mol^−1 | 1.46 | -0.985 ± 0.0048 | 1.13 ± 0.15 10^4L·mol^−1 | 1.61 | -1.05 ± 0.0048 | 2.18 ± 0.311 | 43.56 ± 3.21 |  |
